Source: patent US20070105840A1, “Pyrrolo-dihydroisoquinoline derivatives as pde10 inhibitors” (Altana Pharma AG, priority 2003, published 2007)

Structure (SMILES)	melting point [°C]
COc1cc2c(cc1OC)-c1c(C#N)c(-c3cn(S(=O)(=O)N(C)C)c4ccccc34)c(C)n1C(C)C2 (centres unmarked) [Example 54, 3-(1-Cyano-8,9-dimethoxy-3,5-dimethyl-5,6-dihydro-pyrrolo[2,1-a]isoquinolin-2-yl)-indole-1-sulfonic acid dimethylamide]	236 to 237
COc1cc2c(cc1OC)-c1c(C#N)c(-c3ccc(-c4nn[nH]n4)cc3)c(C)n1C(C)C2 (centres unmarked) [Example 57, 8,9-Dimethoxy-3,5-dimethyl-2-[4-(2H-tetrazol-5-yl)-phenyl]-5,6-dihydro-pyrrolo[2,1-a]isoquinoline-1-carbonitrile]	204 to 207
COC(=O)c1c(-c2cn(S(=O)(=O)c3ccc(C)cc3)c3ccccc23)c(C)n2c1-c1cc(OC)c(OC)cc1CC2C (centres unmarked) [Example 66, 8,9-Dimethoxy-3,5-dimethyl-2-[1-(toluene-4-sulfonyl)-1H-indol-3-yl]-5,6-dihydro-pyrrolo[2,1-a]isoquinoline-1-carboxylic acid methyl ester]	177 to 179
COc1cc2c(cc1OC)-c1c(C)c(-c3cc(C)c(O)c(C)c3)c(C)n1CC2 [Example 68, 4-(8,9-Dimethoxy-1,3-dimethyl-5,6-dihydro-pyrrolo[2,1-a]isoquinolin-2-yl)-2,6-dimethyl-phenol]	183 to 185

Second part, the molecule after the results:

melting point [°C]	Structure (SMILES)
232 to 234	CCOc1cc2c(cc1OC)-c1c(C#N)c(-c3cc(C)c(O)c(C)c3)c(C)n1C(C)C2 (centres unmarked) [Example 53, 8-Ethoxy-2-(4-hydroxy-3,5-dimethyl-phenyl)-9-methoxy-3,5-dimethyl-5,6-dihydro-pyrrolo[2,1-a]isoquinoline-1-carbonitrile]
223 to 225	COc1cc2c(cc1OC)-c1c(C#N)c(-c3ccc(NS(=O)(=O)N4CCOCC4)cc3)c(C)n1C(C)C2 (centres unmarked) [Example 58, Morpholine-4-sulfonic acid [4-(1-cyano-8,9-dimethoxy-3,5-dimethyl-5,6-dihydro-pyrrolo[2,1-a]isoquinolin-2-yl)-phenyl]-amide]
257 to 259	COc1cc2c(cc1OC)-c1c(C#N)c(-c3ccc(NS(C)(=O)=O)cc3)c(C)n1C(C)C2 (centres unmarked) [Example 59, N-[4-(1-Cyano-8,9-dimethoxy-3,5-dimethyl-5,6-dihydro-pyrrolo[2,1-a]isoquinolin-2-yl)-phenyl]-methanesulfonamide]
177 to 179	COC(=O)c1c(-c2cc(C)c(O)c(C)c2)c(C)n2c1-c1cc(OC)c(OC)cc1CC2C (centres unmarked) [Example 65, 2-(4-Hydroxy-3,5-dimethyl-phenyl)-8,9-dimethoxy-3,5-dimethyl-5,6-dihydro-pyrrolo[2,1-a]isoquinoline-1-carboxylic acid methyl ester]
